Source: US4652649A, “Anti-spasmodic agents having a ring in the main chain” (United Pharmaceuticals, Inc., priority 1985, dated 1987)
Where a name gives a salt, the structure may show the parent alone.

Columns and labels:
[1] = system: gastrointestinal tract, biliary tract, ureter and uterus; conditions: cited from earlier work
[2] = system: muscarinic receptors; assay type: binding, rabbit (New Zealand White); conditions: at a concentration of 1.0 × 10^-5 M; rabbit lung homogenate, 0.1 nM [3H]QNB, 37° C., 60 min

For CCN(CC)CCSC(=O)C(c1ccccc1)c1ccccc1 [Thiphenamil hydrochloride], the “decrease spasm of the gastrointestinal tract, biliary tract, ureter and uterus” value ([1]; in vivo) is given as “decrease spasm of the gastrointestinal tract, biliary tract, ureter and uterus” and the atropinic side effects ([1]; salivary and sweat glands, GI glands, the eye or the cardiovascular system) is given as “without producing characteristic atropinic side effects”.

With CCN(CC)CCSC(=O)c1ccc(C(C)(C)C)cc1 [4-t-butyl-benzoyl-thio-S-(2-diethylaminoethyl)-ester.HCl] the “% inhibition of 3H[QNB] binding” value [2] was 21%.
